Reference: PMC6838110 (Nature Communications, 2019)

Key:
NCI-H1299 xenografts = assay: Xenograft efficacy study with fractionated IR; assay type: in vivo, mice
Protocol: (§1) Immunocompromised SCID (C.B-17/IcrHan®Hsd-Prkdc^scid) or Hsd:Athymic Nude-Foxn1^nu female mice (Envigo) were used for tumour implantation. […] When dosed twice daily, the time between the morning and evening doses was 8 h. Targeted irradiation of 2 Gy was delivered over 2 min daily over the first 5 days of treatment. Liposomal doxorubicin (Doxoves) was diluted in physiological saline and intravenously dosed at 2.5 or 5 mg kg^−1 once per week. Olaparib was formulated in 10% DMSO/30% Kleptose and orally dosed at 100 mg kg^−1 once daily. […] Statistical significance was evaluated using a one-tailed t-test. All in vivo studies complied with all relevant ethical regulations for animal testing and research, followed AstraZeneca’s global bioethics policy and received ethical approval from the AstraZeneca ethical committee. HBCx-17 PDX study was carried out at XenTech, France in accordance with French regulatory legislation concerning the protection of laboratory animals. CTG-703, CTG-0828 and CTG-0149 PDX studies were carried out at Champions Oncology, Inc., USA in accordance to the guidelines of the Institutional Animal Care and Use Committee (IACUC) of Champions Oncology and the USA regulatory legislation. CDX and OV2022 PDX studies were conducted in the UK in accordance with UK Home Office legislation, the Animal Scientific Procedures Act 1986 and the Home Office project licences 70/8839, 70/8894 and P0EC1FFDF. […]
(§2) Tumours were measured (length x width) by bilateral Vernier calliper measurements and tumour volume calculated using Mousetrap software. Mice were randomized into […]
(§3) treatment groups when mean tumour volume reached ~0.2 cm 3. AZD7648 was formulated in 0.5% hydroxypropyl methylcellulose (HPMC)/0.1% Tween80 (HPMC/T) and orally dosed (4–100 mg/kg). When dosed twice daily (bid), the time between the morning and evening doses was 8 hours. Targeted irradiation of 2 Gy was delivered over 2 minutes daily over the first 5 days of treatment. Liposomal doxorubicin (Doxoves) was diluted in physiological saline and intravenously dosed at 2.5 or 5 mg/kg once per week. Olaparib was formulated in 10% DMSO/30% Kleptose and orally dosed at 100 mg/kg once daily.
(§4) HPMC/T. Tumour growth inhibition from start of treatment was assessed by co mparison of the mean change in tumour volume for the control and treated groups, using the Mousetrap application and represented as tumour growth inhibition (TGI). Statistical significance was evaluated using a one-tailed t-test. […]
(§5) was prepared using an appropriate dilution factor and compared against an 11-point standard calibration curve (1–10,000 nM) prepared in DMSO and spiked into bl ank plasma. […] Supernatant (50 µL) was then diluted in 300 µL water and analysed with ultra-performance liquid chromatography–tandem mass […]

A549 xenografts = assay: Xenograft efficacy study with fractionated IR; assay type: in vivo, mice
Protocol: as §1, §2, §3, §4, §5

[1] = system: FaDu ATM KO xenograft model; assay: Pharmacodynamic biomarkers by western blot; assay type: in vivo, mice; details: 30 min after 75 mg kg−1 dose of AZD7648
Excerpt: (1 picture or pasted object on this page, not shown here)
treatment groups when mean tumour volume reached ~0.2 cm 3.

[2] = system: UWB1.289 and DLD1 BRCA2 KO cells; assay: Live/Dead assay, AZD7648 monotherapy, BRCA1/BRCA2 isogenic pairs; assay type: cell-based; details: 7 days treatment
Excerpt: (§6) by Live/Dead assay in A) UWB1.289 and UWB1.289 complemented with wild-type BRCA1 (UWB1.289 + BRCA1), DLD1 and DLD1 with the BRCA2 gene knocked out (DLD1 BRCA2 KO), and B) FaDu and A549 cells with the ATM gene knocked out (ATM KO) compared with their WT counterpart. Graphs represent percentage viable cells ± SD following 7 days’ treatment relative to DMSO vehicle-treated controls from one representative experiment of at least three independent experiments. Tables describe […]
(§7) and A549 ATM KO cells compared with their WT counterparts following 7 days’ treatment.
(§8) Mean pGI50 (–log [GI50]) ± SEM, geometric mean GI50, number of experimental repeats (n) and 95% confidence interval are described. C) Colony formation assay was performed on FaDu and A549 ATM KO and WT cells treated with increasing concentrations of olaparib. Graphs represent percentage surviving fraction of colonies ± SD following 10– 14 days’ treatment relative to DMSO vehicle-treated control from one representative experiment of three independent experiments. […] Mean pIC50
(§9) ± SEM, geometric mean IC50, number of experimental repeats (n) and 95% confidence […]
(§10) 8–14 days or with increasing concentrations of olaparib. Cell colonies were washed with […]
(§11) Mean surviving colonies were calculated from three technical replicates. […]
(§12) before survival fraction was calculated. […]
(§13) and quantified using the Acumen ® Cellista (TTP Labtech). […]

[3] = system: FaDu and A549 ATM KO cells; assay: Live/Dead assay, AZD7648 monotherapy, ATM KO versus WT isogenic pairs; assay type: cell-based, human; details: AZD7648 single agent
Excerpt: as §6, §7, §8, §9, §10, §11, §12, §13

Cc1cc2ncnn2cc1Nc1ncc2c(n1)n(C1CCOCC1)c(=O)n2C [AZD7648]
tumour regression (NCI-H1299 xenografts; AZD7648 50 mg kg−1 qd × 21 days + IR 2 Gy qd × 5 days): 55%
tumour regression (NCI-H1299 xenografts; AZD7648 100 mg kg−1 qd × 21 days + IR 2 Gy qd × 5 days): 85%
tumour growth inhibition (TGI) (A549 xenografts; AZD7648 100 mg kg−1 qd oral + IR 2 Gy for five consecutive days): 90%
tumour response to single-agent treatment (A549 xenografts; AZD7648 100 mg kg−1 qd oral, single agent): insensitive
reduction of pDNA-PKcs Ser2056, γH2AX and pRPA32 Ser4/Ser8 [1]: ~ 80%
effect of loss of BRCA1 or BRCA2 on sensitivity to monotherapy [2]: did not sensitize
greater sensitivity of ATM KO cells compared with isogenic WT cells [3]: > 10 fold
